Experimental data as given in patent US20260240862A1, “COMBINATION OF ROGINOLISIB AND BCL-2 INHIBITOR IN THE TREATMENT OF HAEMATOLOGICAL MALIGNANCY” (IONCTURA SA, priority 2023, published 2026).

Legend:
TMD8 (DLBCL) = assay: MTT antiproliferation assay, combination of Compound 1 and BCL-2 inhibitor, Chou-Talalay Combination Index; type: cell-based; settings: BCL-2 inhibitor in combination with Compound 1, 72 hours
Procedure: (§1) Venetoclax, S55746, S64315, and S63845, were used at a maximum concentration of 10 μM, following an eight fold dose response based on 1:4 compound dilutions plus an untreated control.
(§2) Cells were incubated for 72 hours at 37° C. and 5% CO2. The antiproliferative effect of single and combination treatments were determined by adding 20 μL MTT [3-(4,5-dimethylthiazolyl-2)-2, 5-diphenyltetrazoliumbromide]reagent (Sigma Aldrich, Buchs, Switzerland) to each well and the plates were incubated at 37° C. for 4 hours, followed by adding 50 μL of sodium dodecyl sulfate (SDS) (250 μM SDS, 0.21% fuming HCl) lysis buffer. The lysed cells were kept overnight, and then the absorbance was read at 570 nm using the Cytation 3 instrument (BioTek, Winoosku, VT, USA). […] The effect of the combinations was defined as strongly synergistic for CI values below <0.3, synergistic for CI values between 0.3 and 0.9, additive for CI values between 0.9 and 1.1, and antagonistic for CI values >1.1.

MJ (CTCL) = assay: as above; type: cell-based; settings: BCL-2 inhibitor in combination with Compound 1, 72 hours
Procedure: as §1, §2

JVM2 (MCL) = assay: as above; type: cell-based; settings: BCL-2 inhibitor in combination with Compound 1, 72 hours
Procedure: as §1, §2

Granta519 (MCL) = assay: as above; type: cell-based; settings: BCL-2 inhibitor in combination with Compound 1, 72 hours
Procedure: as §1, §2

SP49 (MCL) = assay: as above; type: cell-based; settings: BCL-2 inhibitor in combination with Compound 1, 72 hours
Procedure: as §1, §2

MEC1 (CLL) = assay: as above; type: cell-based; settings: BCL-2 inhibitor in combination with Compound 1, 72 hours
Procedure: as §1, §2

DNMT = settings: more than that of azacytidine (Zhang 2022); cited from earlier work

Cc1c(-c2c(-c3ccc(F)o3)sc3ncnc(O[C@H](Cc4ccccc4OCc4ccnn4CC(F)(F)F)C(=O)O)c23)ccc(OCCN2CCN(C)CC2)c1Cl (atropisomer, axis not shown) [Compound S63845, (R)-2-((5-(3-chloro-2-methyl-4-(2-(4-methylpiperazin-1-yl)ethoxy)phenyl)-6-(5-fluorofuran-2-yl)thieno[2,3-d]pyrimidin-4-yl)oxy)-3-(2-((1-(2,2,2-trifluoroethyl)-1H-pyrazol-5-yl)methoxy)phenyl)propanoic acid]
CI value (median) (TMD8 (DLBCL)): 0.86
CI value (median) (MJ (CTCL)): 0.67
CI value (median) (JVM2 (MCL)): 0.33
CI value (median) (Granta519 (MCL)): 0.47

COc1ccccc1-c1nccc(COc2ccccc2C[C@@H](Oc2ncnc3sc(-c4ccc(F)cc4)c(-c4ccc(OCCN5CCN(C)CC5)c(Cl)c4C)c23)C(=O)O)n1 (atropisomer, axis not shown) [Compound S64315, (R)-2-((5-(3-chloro-2-methyl-4-(2-(4-methylpiperazin-1-yl)ethoxy)phenyl)-6-(4-fluorophenyl)thieno[2,3-d]pyrimidin-4-yl)oxy)-3-(2-((2-(2-methoxyphenyl)pyrimidin-4-yl)methoxy)phenyl)propanoic acid]
CI value (median) (TMD8 (DLBCL)): 0.23
CI value (median) (SP49 (MCL)): 0.71
CI value (median) (JVM2 (MCL)): 0.24
CI value (median) (MEC1 (CLL)): 0.88

O=C(c1cc(-c2cc3c(cc2C(=O)N2Cc4ccccc4C[C@H]2CN2CCOCC2)OCO3)n2c1CCCC2)N(c1ccccc1)c1ccc(O)cc1 [Compound S55746, (S)—N-(4-hydroxyphenyl)-3-(6-(3-(morpholinomethyl)-1,2,3,4-tetrahydroisoquinoline-2-carbonyl)benzo[d][1,3]dioxol-5-yl)-N-phenyl-5,6,7,8-tetrahydroindolizine-1-carboxamide]
CI value (median) (TMD8 (DLBCL)): 0.4
CI value (median) (JVM2 (MCL)): 0.46
CI value (median) (MEC1 (CLL)): 0.21

Nc1ncn([C@H]2C[C@H](O)[C@@H](CO)O2)c(=O)n1 [Decitabine, 5-aza-2′-deoxycytidine]
inhibitory activity of DNMT relative to azacytidine (DNMT): 30 times

CC1(C)CCC(CN2CCN(c3ccc(C(=O)NS(=O)(=O)c4ccc(NCC5CCOCC5)c([N+](=O)[O-])c4)c(Oc4cnc5[nH]ccc5c4)c3)CC2)=C(c2ccc(Cl)cc2)C1 [Venetoclax, 4-(4-{[2-(4-Chlorophenyl)-4,4-dimethyl-1-cyclohexen-1-yl]methyl}-1-piperazinyl)-N-({3-nitro-4-[(tetrahydro-2H-pyran-4-ylmethyl)amino]phenyl}sulfonyl)-2-(1H-pyrrolo[2,3-b]pyridin-5-yloxy)benzamide]
CI value (median) (MJ (CTCL)): 0.47
CI value (median) (JVM2 (MCL)): 0.15
CI value (median) (Granta519 (MCL)): 0.81
CI value (median) (MEC1 (CLL)): 0.05
